Measured values reported in patent US6737383B1, “Herbicidal oxadiazolidines” (priority 1999, dated 2004).

Legend:
bedstraw = test: Test B pre/postemergence bedstraw; format: in vivo, Galium aparine; conditions: Preemergence; for Bedstraw plant response rating: Rate 62 g/ha
Method in brief: (§1)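 Test chemicals in a non-phytotoxic solvent mixture with surfactant were sprayed preemergence onto planted seeds and postemergence onto plants 2 to 18 cm tall (1- to 4-leaf stage). After twelve to sixteen days in a greenhouse, injury was visually rated against untreated controls from 0 (no effect) to 10 (complete control).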

blackgrass = test: Test B pre/postemergence blackgrass; format: in vivo, Alopecurus myosuroides; conditions: Preemergence; for Blackgrass plant response rating: Rate 62 g/ha
Method in brief: as §1

surinam grass = test: Test B pre/postemergence surinam grass; format: in vivo, Brachiaria decumbens; conditions: Preemergence; for B. signalgrass plant response rating: Rate 62 g/ha
Method in brief: as §1

cocklebur = test: Test B pre/postemergence cocklebur; format: in vivo, Xanthium strumarium; conditions: Preemergence; for Cocklebur plant response rating: Rate 62 g/ha
Method in brief: as §1

corn = test: Test B pre/postemergence corn; format: in vivo, Zea mays; conditions: Preemergence; for Corn plant response rating: Rate 62 g/ha
Method in brief: as §1

crabgrass = test: Test B pre/postemergence crabgrass; format: in vivo, Digitaria sanguinalis; conditions: Preemergence; for Crabgrass plant response rating: Rate 62 g/ha
Method in brief: as §1

giant foxtail = test: Test B pre/postemergence giant foxtail; format: in vivo, Setaria faberii; conditions: Preemergence; for Giant foxtail plant response rating: Rate 62 g/ha
Method in brief: as §1

morningglory = test: Test B pre/postemergence morningglory; format: in vivo, Ipomoea hederacea; conditions: Preemergence; for Morningglory plant response rating: Rate 62 g/ha
Method in brief: as §1

pigweed = test: Test B pre/postemergence pigweed; format: in vivo, Amaranthus retroflexus; conditions: Preemergence; for Redroot pigweed plant response rating: Rate 62 g/ha
Method in brief: as §1

rape = test: Test B pre/postemergence rape; format: in vivo, Brassica napus; conditions: Preemergence; for Rape plant response rating: Rate 62 g/ha
Method in brief: as §1

soybean = test: Test B pre/postemergence soybean; format: in vivo, Glycine max; conditions: Preemergence; for Soybean plant response rating: Rate 62 g/ha
Method in brief: as §1

sugar beet = test: Test B pre/postemergence sugar beet; format: in vivo, Beta vulgaris; conditions: Preemergence; for Sugarbeets plant response rating: Rate 62 g/ha
Method in brief: as §1

velvetleaf = test: Test B pre/postemergence velvetleaf; format: in vivo, Abutilon theophrasti; conditions: Preemergence; for Velvetleaf plant response rating: Rate 62 g/ha
Method in brief: as §1

wheat = test: Test B pre/postemergence wheat; format: in vivo, Triticum aestivum; conditions: Preemergence; for Wheat plant response rating: Rate 62 g/ha
Method in brief: as §1

wild oat = test: Test B pre/postemergence wild oat; format: in vivo, Avena fatua; conditions: Preemergence; for Wild oats plant response rating: Rate 62 g/ha
Method in brief: as §1

purple nutsedge = test: Test B pre/postemergence purple nutsedge; format: in vivo, Cyperus rotundus; conditions: Preemergence
Method in brief: as §1

[1] = scale of 0 to 10 where 0 is no effect and 10 is complete control
[2] = Rate 250 g/ha, scale 0 to 10 (0 no effect, 10 complete control)
[3] = Rate 500 g/ha, scale of 0 to 10 where 0 is no effect and 10 is complete control
[4] = Rate 125 g/ha, scale of 0 to 10 where 0 is no effect and 10 is complete control

CC(C)N(C(=O)n1oc(=O)n(CC(Cl)Cl)c1=O)c1ccc(F)cc1F [Compound 673]
3: Bedstraw plant response rating (bedstraw; [1]) | Blackgrass plant response rating (blackgrass; [1]) | Plant response rating, Sugarbeets (sugar beet; [2]) | Plant response rating, Sugarbeets (sugar beet; [3]) | Plant response rating, Velvetleaf (velvetleaf; [4]) | Plant response rating, Velvetleaf (velvetleaf; [2])
8: Plant response rating, Blackgrass (blackgrass; [4]) | Plant response rating, B. signalgrass (surinam grass; [3]) | Plant response rating, Crabgrass (crabgrass; [4]) | Plant response rating, Velvetleaf (velvetleaf; [3]) | Plant response rating, Wild oats (wild oat; [3])
4: Plant response rating, Bedstraw (bedstraw; [2]) | B. signalgrass plant response rating (surinam grass; [1]) | Plant response rating, Corn (corn; [2]) | Crabgrass plant response rating (crabgrass; [1])
9: Plant response rating, Blackgrass (blackgrass; [2]) | Plant response rating, Blackgrass (blackgrass; [3]) | Giant foxtail plant response rating (giant foxtail; [1]) | Plant response rating, Wild oats (wild oat; [2])
0: Cocklebur plant response rating (cocklebur; [1]) | Plant response rating, Cocklebur (cocklebur; [4]) | Plant response rating, Cocklebur (cocklebur; [2]) | Corn plant response rating (corn; [1]) | Morningglory plant response rating (morningglory; [1]) | Plant response rating, Morningglory (morningglory; [4]) | Plant response rating, Morningglory (morningglory; [2]) | Soybean plant response rating (soybean; [1]) | Plant response rating, Soybean (soybean; [4]) | Plant response rating, Soybean (soybean; [2]) | Plant response rating, Soybean (soybean; [3]) | Sugarbeets plant response rating (sugar beet; [1]) | Plant response rating, Sugarbeets (sugar beet; [4]) | Velvetleaf plant response rating (velvetleaf; [1]) | Wheat plant response rating (wheat; [1]) | Plant response rating, Wheat (wheat; [4]) | Plant response rating, Wheat (wheat; [2]) | Nutsedge plant response rating (purple nutsedge; Rate 62 g/ha, scale of 0 to 10 where 0 is no effect and 10 is complete control) | Plant response rating, Nutsedge (purple nutsedge; [4])
5: Wild oats plant response rating (wild oat; [1])
1: Rape plant response rating (rape; [1])
10: Plant response rating, Crabgrass (crabgrass; [2]) | Plant response rating, Crabgrass (crabgrass; [3]) | Plant response rating, Giant foxtail (giant foxtail; [4]) | Plant response rating, Giant foxtail (giant foxtail; [2]) | Plant response rating, Giant foxtail (giant foxtail; [3]) | Plant response rating, Redroot pigweed (pigweed; [2]) | Plant response rating, Redroot pigweed (pigweed; [3])
2: Plant response rating, Cocklebur (cocklebur; [3]) | Plant response rating, Corn (corn; [4]) | Plant response rating, Morningglory (morningglory; [3]) | Plant response rating, Rape (rape; [4]) | Plant response rating, Rape (rape; [2]) | Plant response rating, Rape (rape; [3]) | Plant response rating, Nutsedge (purple nutsedge; [2])
6: Plant response rating, Bedstraw (bedstraw; [3]) | Plant response rating, B. signalgrass (surinam grass; [4]) | Plant response rating, Corn (corn; [3]) | Redroot pigweed plant response rating (pigweed; [1]) | Plant response rating, Nutsedge (purple nutsedge; [3])
7: Plant response rating, B. signalgrass (surinam grass; [2]) | Plant response rating, Redroot pigweed (pigweed; [4])

CCn1ncc(Cn2c(=O)on(C(=O)N(c3ccc(F)cc3)C(C)C)c2=O)c1Cl [Compound 685]
3: Plant response rating, Wild oats (wild oat; [4])
5: Blackgrass plant response rating (blackgrass; [1]) | B. signalgrass plant response rating (surinam grass; [1])
4: Plant response rating, Redroot pigweed (pigweed; [4])
10: Plant response rating, Blackgrass (blackgrass; [2]) | Plant response rating, Blackgrass (blackgrass; [3])
9: Plant response rating, B. signalgrass (surinam grass; [2]) | Plant response rating, B. signalgrass (surinam grass; [3]) | Crabgrass plant response rating (crabgrass; [1]) | Plant response rating, Crabgrass (crabgrass; [4]) | Plant response rating, Crabgrass (crabgrass; [2]) | Giant foxtail plant response rating (giant foxtail; [1]) | Plant response rating, Giant foxtail (giant foxtail; [4])
0: Plant response rating, Bedstraw (bedstraw; [4]) | Plant response rating, Bedstraw (bedstraw; [2]) | Plant response rating, Bedstraw (bedstraw; [3]) | Cocklebur plant response rating (cocklebur; [1]) | Plant response rating, Cocklebur (cocklebur; [4]) | Plant response rating, Cocklebur (cocklebur; [2]) | Corn plant response rating (corn; [1]) | Plant response rating, Corn (corn; [4]) | Plant response rating, Corn (corn; [2]) | Morningglory plant response rating (morningglory; [1]) | Plant response rating, Morningglory (morningglory; [4]) | Redroot pigweed plant response rating (pigweed; [1]) | Rape plant response rating (rape; [1]) | Plant response rating, Rape (rape; [4]) | Soybean plant response rating (soybean; [1]) | Plant response rating, Soybean (soybean; [4]) | Sugarbeets plant response rating (sugar beet; [1]) | Plant response rating, Sugarbeets (sugar beet; [4]) | Velvetleaf plant response rating (velvetleaf; [1]) | Plant response rating, Velvetleaf (velvetleaf; [4]) | Wheat plant response rating (wheat; [1]) | Plant response rating, Wheat (wheat; [4]) | Wild oats plant response rating (wild oat; [1]) | Plant response rating, Nutsedge (purple nutsedge; [4])
7: Plant response rating, Blackgrass (blackgrass; [4]) | Plant response rating, B. signalgrass (surinam grass; [4])

CC(C)N(C(=O)n1oc(=O)n(CCC(=O)N(C)C)c1=O)c1ccc(F)cc1F [Compound 687]
0: Bedstraw plant response rating (bedstraw; [1]) | Plant response rating, Bedstraw (bedstraw; [4]) | Plant response rating, Bedstraw (bedstraw; [3]) | Cocklebur plant response rating (cocklebur; [1]) | Plant response rating, Cocklebur (cocklebur; [4]) | Plant response rating, Cocklebur (cocklebur; [2]) | Plant response rating, Cocklebur (cocklebur; [3]) | Corn plant response rating (corn; [1]) | Plant response rating, Corn (corn; [4]) | Plant response rating, Corn (corn; [2]) | Rape plant response rating (rape; [1]) | Soybean plant response rating (soybean; [1]) | Plant response rating, Soybean (soybean; [4]) | Wheat plant response rating (wheat; [1]) | Plant response rating, Nutsedge (purple nutsedge; [4])
6: B. signalgrass plant response rating (surinam grass; [1]) | Giant foxtail plant response rating (giant foxtail; [1]) | Plant response rating, Giant foxtail (giant foxtail; [4]) | Plant response rating, Wheat (wheat; [4])
5: Plant response rating, Rape (rape; [4]) | Plant response rating, Sugarbeets (sugar beet; [4]) | Plant response rating, Velvetleaf (velvetleaf; [4])
10: Plant response rating, Blackgrass (blackgrass; [3]) | Plant response rating, B. signalgrass (surinam grass; [2]) | Plant response rating, B. signalgrass (surinam grass; [3])
9: Plant response rating, Blackgrass (blackgrass; [4]) | Plant response rating, Blackgrass (blackgrass; [2]) | Plant response rating, B. signalgrass (surinam grass; [4]) | Plant response rating, Redroot pigweed (pigweed; [4]) | Plant response rating, Wild oats (wild oat; [4])
3: Plant response rating, Morningglory (morningglory; [4])
4: Crabgrass plant response rating (crabgrass; [1]) | Plant response rating, Crabgrass (crabgrass; [2]) | Sugarbeets plant response rating (sugar beet; [1])
7: Wild oats plant response rating (wild oat; [1])
8: Blackgrass plant response rating (blackgrass; [1]) | Redroot pigweed plant response rating (pigweed; [1])
2: Morningglory plant response rating (morningglory; [1]) | Velvetleaf plant response rating (velvetleaf; [1])
